Data published in publication PMC6277767, “Broad and Region-Specific Impacts of the Synthetic Cannabinoid CP 55,940 in Adolescent and Adult Female Mouse Brains” (Frontiers in Molecular Neuroscience, 2018).

Test system: CD1 female mouse brain lipidome
Assay: Brain-region lipid levels (HPLC/MS/MS lipidomics) 2 h after single i.p. 3 mg/kg CP 55,940 vs vehicle
Type: in vivo
Design: N-arachidonoyl phenylalanine level, Mean / N-stearoyl tryptophan level, Mean / N-stearoyl proline level, Mean / N-stearoyl leucine level, Mean / N-stearoyl phenylalanine level, Mean / N-stearoyl serine level, Mean / N-stearoyl methionine level, Mean: unit: moles per gram
Description: The Bloomington Institutional Animal Care and Use Committee of Indiana University reviewed and approved the animal procedures. Female mice from the CD1 strain were utilized to match our study examining THC’s effects on the brain lipidome ([Leishman et al., 2018]). Mice were given a single i.p. injection of either 3 mg/kg CP or 1:1:18 cremophor:ethanol:saline vehicle (please refer to the section “3 mg/kg CP Is Relevant for Synthetic Cannabinoid Abuse and Has Stronger Effects on the Female Mouse Brain Lipidome During Adolescence” for a justification of dose and use of female mice). Three different age groups were given injections: PND 35 and PND 50 adolescents, and adult mice (PND 113). At least eight mice in each age group received CP and at least eight received vehicle. Matching the THC study time course ([Leishman et al., 2018]), mice were sacrificed via rapid decapitation 2 h after injection. Brains were immediately removed and flash-frozen in liquid nitrogen, and then stored at -80°C until dissections were performed. Brains were dissected on an ice-cold dissection plate into the following regions: STR, HIPP, CER, THAL, CTX, HYP, MID, and STEM. These abbreviations for these brain areas will be used exclusively when discussing the results generated by these specific dissections. Each dissected area was immediately placed in liquid nitrogen and then stored at -80°C until used for lipid extraction.
Tissue extracts were performed as previously described ([Bradshaw et al., 2006]; [Stuart et al., 2013]; [Raboune et al., 2014]; [Leishman et al., 2016a],[b], [2017], [2018]). First, samples were shock frozen in liquid nitrogen, weighed, and transferred to a centrifuge tube. The mass of the largest sample was multiplied by 50 to determine how many milliliters of HPLC-grade methanol (Fisher, Fair Lawn, NJ, United States) to add. Then, samples were spiked with 500 pmol deuterium-labeled NAGly (d8NAGly; Cayman Chemical, Ann Arbor, MI, United States). Samples were placed on ice in darkness for 2 h then individually homogenized and centrifuged at 19,000 × g for 20 min at 20°C. Supernatants were diluted with HPLC water (purified in house) to make a solution of 75% water, 25% supernatant. Lipids were partially purified on C18 solid phase extraction columns (Agilent, Palo Alto, CA, United States). A series of four elutions with 1.5 mL of 60%, 75%, 85%, and 100% methanol were collected ([Stuart et al., 2013]; [Leishman et al., 2016a],[b], [2018]).
As previously described ([Bradshaw et al., 2006]; [Tan et al., 2006]; [Smoum et al., 2010]; [Stuart et al., 2013]; [Tortoriello et al., 2013]; [Raboune et al., 2014]; [Leishman et al., 2016a],[b], [2017], [2018]), samples were analyzed using an Applied Biosystems API 3000 triple quadrupole mass spectrometer with electrospray ionization (Foster City, CA, United States). Using an Agilent XDB-C18 reversed phase analytical column and optimized mobile phase gradients, 20 μL from each elution were chromatographed. Two Shimadzu 10ADvp pumps (Columbia, MD, United States) provided the pressure for gradient elution. Mobile phase A: 20% methanol, 80% water (v/v) and 1 mM ammonium acetate (Sigma, St. Louis, MO, United States). Mobile phase B: 100% methanol, 1 mM ammonium acetate. Every method run began with 0% mobile phase B, reached 100% mobile phase B flowing at 0.2 mL/min, and gradually returned to 0% mobile phase B.
This screening library will be referred to as the lipidome when discussing data from this study. HPLC/MS/MS data were analyzed using Analyst software (Applied Biosystems) ([Bradshaw et al., 2006]; [Tan et al., 2006]; [Stuart et al., 2013]; [Tortoriello et al., 2013]; [Raboune et al., 2014]; [Leishman et al., 2016a],[b], [2017], [2018]). Chromatograms (Supplementary Figure 3) were generated by determining the retention time of analytes from the analytical column with a [M-1] or [M+1] parent peak and a fragmentation peak corresponding to the programmed values. […]

[1] = brainstem, PND 50, 3 mg/kg CP 55,940, one-way ANOVA p .062
[2] = brainstem, PND35 WT female mice, 3 mg/kg
[3] = cerebellum, PND 50, 3 mg/kg CP 55,940
[4] = cerebellum, PND 50 female mice, 3 mg/kg CP 55,940

CCCCCCC(C)(C)c1ccc([C@@H]2C[C@H](O)CC[C@H]2CCCO)c(O)c1 [CP 55,940]
2-oleoyl glycerol, Magnitude (x Veh level) (brainstem, PND 50, 3 mg/kg CP 55,940, one-way ANOVA p .046): 0.86 x Veh level
2-palmitoyl glycerol, Direction (relative to Veh) [1]: ↓
2-palmitoyl glycerol, Magnitude (x Veh level) [1]: 0.71 x Veh level
N-arachidonoyl GABA level, Mean [2]: 8.01E-12
N-arachidonoyl alanine level, Mean [2]: 6.76E-12
N-arachidonoyl ethanolamine level, Mean [2]: 2.09E-11
N-arachidonoyl glycine level, Mean [2]: 4.63E-11
N-arachidonoyl methionine level, Mean [2]: 8.72E-13
N-arachidonoyl phenylalanine level, Mean [2]: 9.69E-13
N-docosahexaenoyl GABA level, Mean [2]: 2.13E-12
N-docosahexaenoyl alanine level, Mean [2]: 4.95E-12
N-docosahexaenoyl ethanolamine level, Mean [2]: 4.42E-11
N-docosahexaenoyl glycine level, Mean [2]: 2.18E-11
N-docosahexaenoyl leucine level, Mean [2]: 5.85E-13
N-docosahexaenoyl phenylalanine level, Mean [2]: 8.51E-13
N-linoleoyl GABA level, Mean [2]: 8E-13
N-linoleoyl alanine level, Mean [2]: 1.32E-12
N-linoleoyl ethanolamine level, Mean [2]: 3.37E-11
N-linoleoyl glycine level, Mean [2]: 5.99E-12
N-linoleoyl leucine level, Mean [2]: 3.47E-13
N-oleoyl GABA level, Mean [2]: 4.65E-12
N-oleoyl alanine level, Mean [2]: 7.64E-12
N-oleoyl ethanolamine level, Mean [2]: 2.04E-10
N-oleoyl glycine level, Mean [2]: 2.66E-11
N-oleoyl leucine level, Mean [2]: 1.35E-12
N-oleoyl methionine level, Mean [2]: 1.16E-12
N-oleoyl phenylalanine level, Mean [2]: 1.05E-12
N-palmitoyl GABA level, Mean [2]: 7.63E-12
N-palmitoyl alanine level, Mean [2]: 8.91E-12
N-palmitoyl ethanolamine level, Mean [2]: 1.31E-10
N-palmitoyl glycine level, Mean [2]: 4.17E-11
N-palmitoyl leucine level, Mean [2]: 2.63E-12
N-palmitoyl methionine level, Mean [2]: 1.43E-12
N-palmitoyl phenylalanine level, Mean [2]: 2.02E-12
N-stearoyl GABA level, Mean [2]: 6.98E-12
N-stearoyl alanine level, Mean [2]: 1.31E-11
N-stearoyl ethanolamine level, Mean [2]: 3.25E-11
N-stearoyl glycine level, Mean [2]: 2.18E-11
N-stearoyl leucine level, Mean [2]: 8.28E-13
N-stearoyl methionine level, Mean [2]: 1.7E-12
N-stearoyl phenylalanine level, Mean [2]: 1.48E-12
2-linoleoyl glycerol: Direction (relative to Veh) [3]: ↓
2-linoleoyl glycerol: Magnitude (x Veh level) [3]: 0.65 x Veh level
2-oleoyl glycerol: Direction (relative to Veh) [3]: ↓
2-oleoyl glycerol: Magnitude (x Veh level) [3]: 0.77 x Veh level
2-palmitoyl glycerol: Direction (relative to Veh) [3]: ↓
2-palmitoyl glycerol: Magnitude (x Veh level) [3]: 0.69 x Veh level
6-ketoPGF1α: Direction (relative to Veh) [3]: ↑
6-ketoPGF1α: Magnitude (x Veh level) [3]: 1.33 x Veh level
Arachidonic acid: Direction (relative to Veh) [3]: ↓
Arachidonic acid: Magnitude (x Veh level) [3]: 0.74 x Veh level
Linoleic acid: Direction (relative to Veh) [3]: ↓
Linoleic acid: Magnitude (x Veh level) [3]: 0.73 x Veh level
N-arachidonoyl GABA: Direction (relative to Veh) [3]: ↓
N-arachidonoyl GABA: Magnitude (x Veh level) [3]: 0.75 x Veh level
N-arachidonoyl ethanolamine: Direction (relative to Veh) [3]: ↓
N-arachidonoyl ethanolamine: Magnitude (x Veh level) [3]: 0.81 x Veh level
N-arachidonoyl glycine: Direction (relative to Veh) [3]: ↓
N-arachidonoyl glycine: Magnitude (x Veh level) [3]: 0.68 x Veh level
N-arachidonoyl phenylalanine: Direction (relative to Veh) [3]: ↓
N-arachidonoyl phenylalanine: Magnitude (x Veh level) [3]: 0.60 x Veh level
N-arachidonoyl serine: Direction (relative to Veh) [3]: ↓
N-arachidonoyl serine: Magnitude (x Veh level) [3]: 0.78 x Veh level
N-arachidonoyl taurine: Direction (relative to Veh) [3]: ↓
N-arachidonoyl taurine: Magnitude (x Veh level) [3]: 0.83 x Veh level
N-arachidonoyl tyrosine: Direction (relative to Veh) [3]: ↓
N-arachidonoyl tyrosine: Magnitude (x Veh level) [3]: 0.73 x Veh level
N-docosahexaenoyl phenylalanine: Direction (relative to Veh) [3]: ↓
N-docosahexaenoyl phenylalanine: Magnitude (x Veh level) [3]: 0.77 x Veh level
N-linoleoyl ethanolamine: Direction (relative to Veh) [3]: ↓
N-linoleoyl ethanolamine: Magnitude (x Veh level) [3]: 0.77 x Veh level
N-oleoyl GABA: Direction (relative to Veh) [3]: ↓
N-oleoyl GABA: Magnitude (x Veh level) [3]: 0.76 x Veh level
N-oleoyl ethanolamine: Direction (relative to Veh) [3]: ↓
N-oleoyl ethanolamine: Magnitude (x Veh level) [3]: 0.85 x Veh level
N-oleoyl phenylalanine: Direction (relative to Veh) [3]: ↑
N-oleoyl phenylalanine: Magnitude (x Veh level) [3]: 1.26 x Veh level
N-palmitoyl leucine: Direction (relative to Veh) [3]: ↑
N-palmitoyl leucine: Magnitude (x Veh level) [3]: 1.63 x Veh level
N-palmitoyl valine: Direction (relative to Veh) [3]: ↑
N-palmitoyl valine: Magnitude (x Veh level) [3]: 1.49 x Veh level
Oleic acid: Direction (relative to Veh) [3]: ↓
Oleic acid: Magnitude (x Veh level) [3]: 0.83 x Veh level
PGE2: Direction (relative to Veh) [3]: ↓
PGE2: Magnitude (x Veh level) [3]: 0.68 x Veh level
PGF2α: Direction (relative to Veh) [3]: ↓
PGF2α: Magnitude (x Veh level) [3]: 0.72 x Veh level
2-arachidonoyl glycerol level, Mean [4]: 1.99E-10
2-linoleoyl glycerol level, Mean [4]: 1.45E-10
2-oleoyl glycerol level, Mean [4]: 1.49E-09
2-palmitoyl glycerol level, Mean [4]: 1.57E-09
6-ketoPGF1α level, Mean [4]: 6.52E-12
11-OH-THC level, Mean [4]: BDL
11-nor-9-carboxyTHC level, Mean [4]: BDL
Arachidonic acid level, Mean [4]: 1.8E-10
Cannabidiol level, Mean [4]: BDL
Linoleic acid level, Mean [4]: 1.87E-10
N- stearoyl valine level, Mean [4]: 9.25E-14
N-arachidonoyl GABA level, Mean [4]: 3.92E-12
N-arachidonoyl dopamine level, Mean [4]: BDL
N-arachidonoyl ethanolamine level, Mean [4]: 2.25E-11
N-arachidonoyl glycine level, Mean [4]: 1.1E-12
